Measurements as given in patent publication US9353113B2, “Tetrahydrocarboline derivative” (ONO PHARMACEUTICAL CO., LTD., priority 2011, dated 2016).
Structures can show the parent of a compound that is named as a salt.

System: SD male rat
Assay: Measurement of urethra internal pressure in rat under anesthesia
Type: in vivo
Details: dose 1.0 mg/kg intravenously
Excerpt: A SD male rat (Crl: CD(SD), Charles River Laboratories Japan, Inc., 7-10 weeks old) which has fasted since the evening of the day before this experiment was anesthetized by subcutaneous administration of 1.5 g/kg urethane at a back of a neck. After an abdominal part was median incised, a catheter for duodenum was inserted within lumen of duodenum and then tied down by string. A lower abdominal part was median incised, and a urethra was ligated at around pubis. A urethral catheter for measuring a urethra internal pressure, equipped with a collar at a tip and filled with a physiological saline was inserted into a urethra through an incised bladder top, and ligation-fixed at a bladder neck part. The urethral catheter was connected to a pressure transducer (manufactured by Nihon Kohden Corporation), and a urethra internal pressure was measured. […] A urethra internal pressure reduction rate (%) was calculated based on a urethra internal pressure after compound administration, wherein a value obtained by subtracting a postmorten basline value (minimum value of urethra internal pressure for 10 minutes after administration of somnopentyl) from a urethra internal pressure value before compound administration (0 minute) was 100%.

`CCc1cccc(Cn2c3c(c4cccnc42)CCN(C(=O)CC24CCC(C(=O)O)(CC2)C4)C3)c1` [Example 6(72), 4-{2-[9-(3-ethylbenzyl)-5,6,8,9-tetrahydro-7H-pyrido[4′,3′:4,5]pyrrolo[2,3-b]pyridin-7-yl]-2-oxoethyl}bicyclo[2.2.1]heptane-1-carboxylic acid] was tested, and the “urethra internal pressure reduction rate” value was 25%.

System: Crl:CD (Sparague-Dawley) male rat
Assay: Measurement of blood pressure, heart rate in rat under wakefulness
Type: in vivo
Details: conscious rat, 100, 300 mg/kg forcedly orally administered, up to 180 minutes
Description: A Crl:CD (Sparague-Dawley) male rat (Charles River Laboratories Japan, Inc., 8 weeks old) was anesthetized by inhalation of isoflurane. A catheter (INTRAMEDIC POLYETHYLENE Tubing PE50, CLAY ADAMS) was inserted and indwelled in a femoral artery and another end was exposed from dorsal skin. The rat was placed in a rearing cage for blood pressure measurement. After elapse of 2 hours or more from the insertion of the catheter, each of the compound of Reference Example 2 and the compound of Example 6(72) (dose: 100, 300 mg/kg) was forcedly orally administered, and blood pressure was measured under no anesthesia and no restraint. The blood pressure was measured by connecting the catheter inserted in the femoral artery and a blood pressure transducer (DX-360, Nihon Kohden Corporation) and passing through an amplifier for blood pressure measurement (Coupler•Amplifier PP-101HAP-101H, Nihon Kohden Corporation). Blood pressure signals were captured into a data acquisition analysis system (HEM 3.5, NOTOCORD SYSTEM S.A.) through a polygraph system (PEG-1000, Nihon Kohden Corporation) to measure blood pressure (systolic pressure, diastolic pressure, mean blood pressure) and heart rate (measured from blood pressure pulse wave). […] The data were accumulated as measured values at respective time points and % variation values in which each value before administration was taken as 100.

With `O=C(C[C@H]1CC[C@H](C(=O)O)CC1)N1CCc2c(n(Cc3ccc(F)cc3F)c3ncccc23)C1` [Reference Example 2, trans-4-{2-[9-(2,4-difluorobenzyl)-5,6,8,9-tetrahydro-7H-pyrido[4′,3′:4,5]pyrrolo[2,3-b]pyridin-7-yl}-2-oxoethyl]cyclohexanecarboxylic acid, reference compound] the “influence on a circulatory organ (blood pressure, heart rate)” value was “An influence of the compound of Reference Example 2 on a circulatory organ was observed”.
With `CCc1cccc(Cn2c3c(c4cccnc42)CCN(C(=O)CC24CCC(C(=O)O)(CC2)C4)C3)c1` [Example 6(72), 4-{2-[9-(3-ethylbenzyl)-5,6,8,9-tetrahydro-7H-pyrido[4′,3′:4,5]pyrrolo[2,3-b]pyridin-7-yl]-2-oxoethyl}bicyclo[2.2.1]heptane-1-carboxylic acid] the “influence on a circulatory organ (blood pressure, heart rate)” value was “no influence of the compound of Example 6(72) that is a compound of the present invention was observed on a circulatory organ”.

Target: human ENPP2 (Homo sapiens (Human), UniProt Q13822)
Assay: Measurement of human ENPP2 inhibitory activity
Type: biochemical
Details: human ENPP2, 16:0-LPC substrate
Description: 10 μL of a test compound solution (10% dimethyl sulfoxide) at each concentration and 40 μL of a 5 μg/mL human ENPP2 solution (buffer A: 100 mmol/L Tris-HCl (pH 9.0), 500 mmol/L NaCl, 5 mmol/L MgCl2, 0.05% Triton X-100) were mixed, 50 μL of a 2 mmol/L 16:0-lysophosphatidylcholine (LPC) solution (buffer A) was further added to react at 37° C. for 24 hours. Subsequently, to 10 ill, of the reaction solution was added 90 III, of a measurement buffer (0.5 mmol/L aminoantipyrine, 0.3 mmol/L N-ethyl-N-(2-hydroxy-3-sulfopropyl)-3-methylaniline, 1 U/mL peroxidase, 3 U/mL choline oxidase, 100 mmol/L Tris-HCl (pH 8.5), 5 mmol/L CaCl2) to react at 37° C. for 20 minutes, and spectrophotometric determination was performed at 555 nm.
Using a standard curve, a choline production amount (enzyme activity) in each test compound was calculated, and the inhibitory activity rate of each test compound was calculated, wherein the enzyme activity in a positive control to which a test compound is not added, was a 0% inhibition rate, and the enzyme activity in a negative control to which a test compound and human ENPP2 are not added, were 100% inhibition. Further, concerning the present compounds shown in Table 3, an IC50 value was calculated from inhibitory activity rate at each concentration.

Compared with `O=C(O)C1=CCN(CC(=O)N2CCc3c(n(Cc4ccc(C(F)(F)F)s4)c4ncccc34)C2)CC1` [Example 7(45), 1-[2-oxo-2-(9-{[5-(trifluoromethyl)-2-thienyl]methyl}-5,6,8,9-tetrahydro-7H-pyrido[4′,3′:4,5]pyrrolo[2,3-b]pyridin-7-yl)ethyl]-1,2,3,6-tetrahydro-4-pyridinecarboxylic acid], `C[C@@H]1CN(CC(=O)N2CCc3c(n(Cc4ccc(C(F)(F)F)s4)c4ncccc34)C2)C[C@H](C)N1CC(=O)O` [Example 7(41), rel-{(2R,6S)-2,6-dimethyl-4-[2-oxo-2-(9-{[5-(trifluoromethyl)-2-thienyl]methyl}-5,6,8,9-tetrahydro-7H-pyrido[4′,3′:4,5]pyrrolo[2,3-b]pyridin-7-yl)ethyl]-1-piperazinyl}acetic acid dihydrochloride] is 3.3-fold lower in IC50: 16 nM for the first, 4.9 nM for the second. The second is the more potent here.

`CC1(C)[C@@H](CC(=O)N2CCc3c(n(Cc4ccc(C(F)(F)F)cc4)c4ncccc34)C2)CC[C@@]1(C)C(=O)O` [Example 6(53), (1R,3R)-1,2,2-trimethyl-3-(2-oxo-2-{9-[4-(trifluoromethyl)benzyl]-5,6,8,9-tetrahydro-7H-pyrido[4′,3′:4,5]pyrrolo[2,3-b]pyridin-7-yl}ethyl)cyclopentanecarboxylic acid] and `Cc1nc(C(F)(F)F)sc1Cn1c2c(c3cccnc31)CCN(C(=O)C[C@H]1CC[C@@](C)(C(=O)O)C1(C)C)C2` [Example 6(63), (1R,3R)-1,2,2-trimethyl-3-[2-(9-{[4-methyl-2-(trifluoromethyl)-1,3-thiazol-5-yl]methyl}-5,6,8,9-tetrahydro-7H-pyrido[4′,3′:4,5]pyrrolo[2,3-b]pyridin-7-yl)-2-oxoethyl]cyclopentanecarboxylic acid] are within 1.5-fold of each other in IC50: 10 nM for the first, 8 nM for the second.

`CC(C)(CCCC(=O)N1CCc2c(n(Cc3cnc(C(F)(F)F)s3)c3ncccc23)C1)C(=O)O` [Example 3(50), 2,2-dimethyl-6-oxo-6-(9-{[2-(trifluoromethyl)-1,3-thiazol-5-yl]methyl}-5,6,8,9-tetrahydro-7H-pyrido[4′,3′:4,5]pyrrolo[2,3-b]pyridin-7-yl)hexanoic acid] and `C[C@]1(C(=O)O)CC[C@H](CC(=O)N2CCc3c(n(Cc4cnc(C(F)(F)F)s4)c4ncccc34)C2)CC1` [Example 10(5), trans-1-methyl-4-[2-oxo-2-(9-{[2-(trifluoromethyl)-1,3-thiazol-5-yl]methyl}-5,6,8,9-tetrahydro-7H-pyrido[4′,3′:4,5]pyrrolo[2,3-b]pyridin-7-yl)ethyl]cyclohexanecarboxylic acid] are within 1.5-fold of each other in IC50: 4.5 nM for the first, 3.8 nM for the second.

`O=C(CCCC1(C(=O)O)CC1)N1CCc2c(n(Cc3ccc(C(F)(F)F)s3)c3ncccc23)C1` [Example 9(1), 1-[4-oxo-4-(9-{[5-(trifluoromethyl)-2-thienyl]methyl}-5,6,8,9-tetrahydro-7H-pyrido[4′,3′:4,5]pyrrolo[2,3-b]pyridin-7-yl)butyl]cyclopropanecarboxylic acid] and `C[C@]1(C(=O)O)CC[C@H](CC(=O)N2CCc3c(n(Cc4ccc(C(F)(F)F)s4)c4ncccc34)C2)CC1` [Example 10(2), trans-1-methyl-4-[2-oxo-2-(9-{[5-(trifluoromethyl)-2-thienyl]methyl}-5,6,8,9-tetrahydro-7H-pyrido[4′,3′:4,5]pyrrolo[2,3-b]pyridin-7-yl)ethyl]cyclohexanecarboxylic acid] are within 1.5-fold of each other in IC50: 12 nM for the first, 17 nM for the second.

Compared with `O=C(O)C1CCN(CC(=O)N2CCc3c(n(Cc4ccc(OC(F)(F)F)cc4)c4ncccc34)C2)CC1` [Example 7(3), 1-(2-oxo-2-{9-[4-(trifluoromethoxy)benzyl]-5,6,8,9-tetrahydro-7H-pyrido[4′,3′:4,5]pyrrolo[2,3-b]pyridin-7-yl}ethyl)-4-piperidinecarboxylic acid hydrochloride], `COc1cc(CC(=O)N2CCc3c(n(Cc4ccc(OC(F)(F)F)cc4)c4ncccc34)C2)ccc1C(=O)O` [Example 11(12), 2-methoxy-4-(2-oxo-2-{9-[4-(trifluoromethoxy)benzyl]-5,6,8,9-tetrahydro-7H-pyrido[4′,3′:4,5]pyrrolo[2,3-b]pyridin-7-yl}ethyl)benzoic acid] is 5.2-fold lower in IC50: 28 nM for the first, 5.4 nM for the second. The second is the more potent here.

Going from `O=C(C[C@H]1CC[C@H](C(=O)O)CC1)N1CCc2c(n(Cc3ccc(F)cc3F)c3ncccc23)C1` [Reference Example 2, trans-4-{2-[9-(2,4-difluorobenzyl)-5,6,8,9-tetrahydro-7H-pyrido[4′,3′:4,5]pyrrolo[2,3-b]pyridin-7-yl}-2-oxoethyl]cyclohexanecarboxylic acid, reference compound] to `O=C(CC12CCC(C(=O)O)(CC1)C2)N1CCc2c(n(Cc3cnc(C(F)(F)F)s3)c3ncccc23)C1` [Example 6(65), 4-[2-oxo-2-(9-{[2-(trifluoromethyl)-1,3-thiazol-5-yl]methyl}-5,6,8,9-tetrahydro-7H-pyrido[4′,3′:4,5]pyrrolo[2,3-b]pyridin-7-yl)ethyl]bicyclo[2.2.1]heptane-1-carboxylic acid], the IC50 falls from 14 nM to 5.1 nM (2.7-fold). The second is the more potent here.

`COc1cc(CC(=O)N2CCc3c(n(Cc4sc(C(F)(F)F)nc4C)c4ncccc34)C2)cc(OC)c1C(=O)O` [Example 11(24), 2,6-dimethoxy-4-[2-(9-{[4-methyl-2-(trifluoromethyl)-1,3-thiazol-5-yl]methyl}-5,6,8,9-tetrahydro-7H-pyrido[4′,3′:4,5]pyrrolo[2,3-b]pyridin-7-yl)-2-oxoethyl]benzoic acid] showed an IC50 of 8.4 nM.
